Experimental findings from US20230069804A1, “METHODS AND COMPOSITIONS FOR MODULATING SPLICING” (SkyHawk Therapeutics, Inc., priority 2019, published 2023) are described below.

“And” between values parts separate entries of the source, which are not always exact repeats. Equal values may be shown once. Read-outs that look alike come from different tables or passages of the source.

The test system of series [1] is MDR1-MDCK cell monolayers. The experiment in a line: MDCK-MDR1 permeability assay (BBB penetration potential). Type of series: in vitro ADME. The note with it: 5 μM, 120 minutes; for MDCK-MDR1: % Recov A-B / MDCK-MDR1: % Recov B-A: pH 7.4; for MDCK MDRP1 Efflux Ratio: Papp (B-to-A)/Papp (A-to-B), separated enantiomers, told apart by chiral retention time. The protocol: (§1) Each determination is performed in duplicate. […] Analytical conditions are outlined below.
(§2) Papp=(dCr/dt)×Vr/(A×CA) (1)

A further series concerns MDR1. The description is as above. It counts as in vitro ADME. The following applies: dog; for Papp A→B at 120 min, 5 μM / Papp B→A at 120 min, 5 μM: MDCK-MDR1, pH 7.4. As for the experimental part:
as §1, §2

Where [2] appears, read: MDCK-MDR1, pH 7.4, Papp (B-to-A)/Papp (A-to-B), read-out: MDCK-MDR1: Efflux.
[3] abbreviates: MDCK-MDR1, pH 7.4, Papp (B-to-A)/Papp (A-to-B), 5 μM, 120 minutes, separated enantiomers, told apart by chiral retention time, read-out: MDCK MDRP1 Efflux Ratio.

Regarding `CN(c1nnc(-c2ccc(-c3ccn(C)c(=O)c3)cc2O)s1)[C@@H]1C[C@H]2CC[C@H](N2)[C@@H]1F` (single isomer, unassigned) [Compound E-4A], in series [1], the “MDCK-MDR1: % Recov A-B” value came out at 93% and the “MDCK-MDR1: % Recov B-A” value is on record as 101%. The efflux ratio at 120 min, 5 μM in the series on MDR1 (setting [2]) amounted to 54. In the series with MDR1 (5 μM, 120 minutes), the Papp A→B at 120 min, 5 μM is 1.03 ×10⁻⁶ cm/s and the basolateral-to-apical permeability (Papp B→A) at 120 min, 5 μM was found to be 55.9 ×10⁻⁶ cm/s.

On to `CN(c1nnc(-c2cc(F)c(-c3cnn(C)c3)cc2O)s1)[C@H]1C[C@@H]2CC[C@@H](N2)[C@H]1F` (racemic) [9A/9B, 4-fluoro-2-(5-{[(1S,2S,3R,5R)-2-fluoro-8-azabicyclo[3.2.1]octan-3-yl](methyl)amino}-1,3,4-thiadiazol-2-yl)-5-(1-methyl-1H-pyrazol-4-yl)phenol and 4-fluoro-2-(5-{[(1R,2R,3S,5S)-2-fluoro-8-azabicyclo[3.2.1]octan-3-yl](methyl)amino}-1,3,4-thiadiazol-2-yl)-5-(1-methyl-1H-pyrazol-4-yl)phenol], for which the “MDCK MDRP1 Efflux Ratio” value in series [1] is recorded as 6. The efflux ratio at 120 min, 5 μM in the series with MDR1 (setting [3]) worked out at 5.

Consider `CN(c1nnc(-c2ccc(-c3cnn(C)c3)cc2O)s1)[C@@H]1C[C@H]2CC[C@@H]([C@@H]1F)N2C` (single isomer, unassigned) [Compound E-25B], for which, in series [1], the “MDCK-MDR1: % Recov A-B” value is 67% and the “MDCK-MDR1: % Recov B-A” value was determined as 83%. Also, the efflux ratio at 120 min, 5 μM in the series with MDR1 (setting [2]) amounted to 3. In the series on MDR1 (5 μM, 120 minutes), the apical-to-basolateral permeability (Papp A→B) at 120 min, 5 μM was found to be 7.16 ×10⁻⁶ cm/s and the Papp B→A at 120 min, 5 μM turned out to be 22.7 ×10⁻⁶ cm/s.

On to `COc1cc(-c2ccc(-c3nnc(N(C)[C@@H]4C[C@H]5CC[C@H](N5)[C@@H]4F)s3)c(O)c2)ncn1` (racemic) [5A/5B, 2-(5-{[(1S,2S,3R)-2-fluoro-8-azabicyclo[3.2.1]octan-3-yl](methyl)amino}-1,3,4-thiadiazol-2-yl)-5-(6-methoxypyrimidin-4-yl)phenol and 2-(5-{[(2R,3S,5S)-2-fluoro-8-azabicyclo[3.2.1]octan-3-yl](methyl)amino}-1,3,4-thiadiazol-2-yl)-5-(6-methoxypyrimidin-4-yl)phenol], for which, in the series on MDR1 (setting [3]), the efflux ratio at 120 min, 5 μM came out at 2.

Turning to `CN(c1nnc(-c2ccc(-c3cnn(C)c3)cc2O)s1)[C@H]1C[C@@H]2CC[C@@H](N2)[C@H]1F` (racemic) [3A/3B, 2-(5-(((1R,2R,3S,5S)-2-fluoro-8-azabicyclo[3.2.1]octan-3-yl)(methyl)amino)-1,3,4-thiadiazol-2-yl)-5-(1-methyl-1H-pyrazol-4-yl)phenol], in series [1], the “MDCK MDRP1 Efflux Ratio” value is listed as 5.3. Further, the efflux ratio at 120 min, 5 μM with MDR1 (setting [3]) stood at 4.3.

Consider `COc1cc(-c2ccc(-c3nnc(N(C)[C@@H]4C[C@H]5CC[C@H](N5)[C@@H]4F)s3)c(O)c2)ccn1` (single isomer, unassigned) [Compound E-11A], for which, in series [1], the “MDCK-MDR1: % Recov A-B” value was determined as 20% and the “MDCK-MDR1: % Recov B-A” value worked out at 56%. Besides, the efflux ratio at 120 min, 5 μM in the series with MDR1 (setting [2]) is 2. In the series on MDR1 (5 μM, 120 minutes), this compound had a Papp A→B at 120 min, 5 μM of 4.19 ×10⁻⁶ cm/s and a Papp B→A at 120 min, 5 μM of 9.76 ×10⁻⁶ cm/s.

As to `CN(c1nnc(-c2ccc(-c3cc(=O)n(C)cn3)cc2O)s1)[C@H]1C[C@@H]2CC[C@@H](N2)[C@H]1F` (single isomer, unassigned) [Compound E-8B], in series [1], the “MDCK-MDR1: % Recov A-B” value came out at 67% and the “MDCK-MDR1: % Recov B-A” value was found to be 42%. In addition, the efflux ratio at 120 min, 5 μM with MDR1 (setting [2]) is 31. For the same compound, in the series with MDR1 (5 μM, 120 minutes), the Papp A→B at 120 min, 5 μM was found to be 0.66 ×10⁻⁶ cm/s and the basolateral-to-apical permeability (Papp B→A) at 120 min, 5 μM worked out at 20.6 ×10⁻⁶ cm/s.

In the case of `COc1cc(-c2ccc(-c3nnc(N(C4CC4)[C@@H]4C[C@H]5CC[C@H](N5)[C@@H]4F)s3)c(O)c2)cc(F)n1` (racemic) [2A/2B, 2-(5-(cyclopropyl((1S,2S,3R,5R)-2-fluoro-8-azabicyclo[3.2.1]octan-3-yl)amino)-1,3,4-thiadiazol-2-yl)-5-(2-fluoro-6-methoxypyridin-4-yl)phenol and 2-(5-(cyclopropyl((1R,2R,3S,5S)-2-fluoro-8-azabicyclo[3.2.1]octan-3-yl)amino)-1,3,4-thiadiazol-2-yl)-5-(2-fluoro-6-methoxypyridin-4-yl)phenol], in the series with MDR1 (setting [3]), the efflux ratio at 120 min, 5 μM stood at 5.

In the case of `CN(c1nnc(-c2ccc(-c3cn[nH]c3)cc2O)s1)[C@H]1C[C@@H]2CC[C@@H](N2)[C@H]1F` (single isomer, unassigned) [Compound E-7A], in series [1], the “MDCK-MDR1: % Recov A-B” value is 99% and the “MDCK-MDR1: % Recov B-A” value is 102%. In addition, the efflux ratio at 120 min, 5 μM in the series on MDR1 (setting [2]) came out at 12. In the series with MDR1 (5 μM, 120 minutes), the apical-to-basolateral permeability (Papp A→B) at 120 min, 5 μM was 5.22 ×10⁻⁶ cm/s and the Papp B→A at 120 min, 5 μM turned out to be 60.6 ×10⁻⁶ cm/s.

For the compound `CN(c1nnc(-c2ccc(-c3cnn(C)c3)cc2O)s1)[C@H]1C[C@@H]2CC[C@H]([C@H]1F)N2C` (single isomer, unassigned) [Compound E-25A], in series [1], the “MDCK-MDR1: % Recov A-B” value is listed as 70% and the “MDCK-MDR1: % Recov B-A” value was determined as 82%. The efflux ratio at 120 min, 5 μM in the series on MDR1 (setting [2]) amounted to 4. Also, in the series with MDR1 (5 μM, 120 minutes), the apparent permeability from apical to basolateral (Papp A→B) at 120 min, 5 μM was 8.7 ×10⁻⁶ cm/s and the Papp B→A at 120 min, 5 μM was 32 ×10⁻⁶ cm/s.

Turning to `CN(c1nnc(-c2ccc(-c3cn[nH]c3)cc2O)s1)[C@H]1C[C@@H]2CC[C@H]([C@H]1F)N2C` (racemic) [23A/23B, 2-(5-{[(1S,2S,3R,5R)-2-fluoro-8-methyl-8-azabicyclo[3.2.1]octan-3-yl](methyl)amino}-1,3,4-thiadiazol-2-yl)-5-(1H-pyrazol-4-yl)phenol and 2-(5-{[(1R,2R,3S,5S)-2-fluoro-8-methyl-8-azabicyclo[3.2.1]octan-3-yl](methyl)amino}-1,3,4-thiadiazol-2-yl)-5-(1H-pyrazol-4-yl)phenol], in series [1], the “MDCK MDRP1 Efflux Ratio” value turned out to be 9. Moreover, the efflux ratio at 120 min, 5 μM in the series with MDR1 (setting [3]) stood at 7.

With `CN(c1nnc(-c2ccc(-c3cnn(C)c3)cc2O)s1)[C@H]1C[C@@H]2CC[C@H]([C@H]1F)N2C` (racemic) [25A/25B, 2-(5-{[(1S,2S,3R,5R)-2-fluoro-8-methyl-8-azabicyclo[3.2.1]octan-3-yl](methyl)amino}-1,3,4-thiadiazol-2-yl)-5-(1-methyl-1H-pyrazol-4-yl)phenol and 2-(5-{[(1R,2R,3S,5S)-2-fluoro-8-methyl-8-azabicyclo[3.2.1]octan-3-yl](methyl)amino}-1,3,4-thiadiazol-2-yl)-5-(1-methyl-1H-pyrazol-4-yl)phenol], the “MDCK MDRP1 Efflux Ratio” value in series [1] is 3 and 4.

Turning to `CN(c1nnc(-c2ccc(-c3cn[nH]c3)cc2O)s1)[C@H]1C[C@@H]2CC[C@@H](N2)[C@H]1F` (racemic) [7A/7B, 2-(5-{[(1S,2S,3R,5R)-2-fluoro-8-azabicyclo[3.2.1]octan-3-yl](methyl)amino}-1,3,4-thiadiazol-2-yl)-5-(1H-pyrazol-4-yl)phenol and 2-(5-{[(1R,2R,3S,5S)-2-fluoro-8-azabicyclo[3.2.1]octan-3-yl](methyl)amino}-1,3,4-thiadiazol-2-yl)-5-(1H-pyrazol-4-yl)phenol], the efflux ratio at 120 min, 5 μM in the series on MDR1 (setting [3]) worked out at 12.

As to `COc1cc(-c2ccc(-c3nnc(N(C)[C@@H]4C[C@H]5CC[C@H](N5)[C@@H]4F)s3)c(O)c2)ccn1` (racemic) [11A/11B, 2-(5-{[(1S,2S,3R)-2-fluoro-8-azabicyclo[3.2.1]octan-3-yl](methyl)amino}-1,3,4-thiadiazol-2-yl)-5-(2-methoxypyridin-4-yl)phenol and 2-(5-{[(2R,3S,5S)-2-fluoro-8-azabicyclo[3.2.1]octan-3-yl](methyl)amino}-1,3,4-thiadiazol-2-yl)-5-(2-methoxypyridin-4-yl)phenol], the efflux ratio at 120 min, 5 μM in the series on MDR1 (setting [3]) is 2.
